Experimental data reported in patent publication US11267795B2, “Crystalline PPAR-delta agonist” (Reneo Pharmaceuticals, Inc., priority 2020, dated 2022).
Marks after values point to notes of the source that are not given here.

Legend:
[1] = Gravimetric Vapor Sorption (GVS) with XRPD re-analysis; assay type: physicochemical; conditions: for Reversible Water Uptake between 0-90% RH: GVS, 25° C.; for Solid State Form After GVS (XRPD): after isotherm experiment at 90% RH and 25° C.
Method: Sorption isotherms were obtained using a SMS DVS Intrinsic moisture sorption analyzer, controlled by DVS Intrinsic Control software. The sample temperature was maintained at 25° C. by the instrument controls. The humidity was controlled by mixing streams of dry and wet nitrogen, with a total flow rate of 200 ml/min. The relative humidity was measured by a calibrated Rotronic probe (dynamic range of 1.0-100% RH), located near the sample. The weight change, (mass relaxation) of the sample as a function of % RH was constantly monitored by a microbalance (accuracy ±0.005 mg).
Typically, 5-30 mg of sample was placed in a tared mesh stainless steel basket under ambient conditions. The sample was loaded and unloaded at 40% RH and 25° C. (typical room conditions). A moisture sorption isotherm was performed as outlined below (2 scans per complete cycle). The standard isotherm was performed at 25° C. at 10% RH intervals over a 0-90% RH range. Typically, a double cycle (4 scans) was carried out. Data analysis was carried out within Microsoft Excel using the DVS Analysis Suite.
The method for SMS DVS Intrinsic experiments is outlined in the following table:
Reversible water uptake for the crystalline forms and patterns as determined by Gravimetric Vapor Sorption (GVS) are as described in the following table:
The samples were recovered after completion of the isotherm experiment at […] and 25° C. and re-analyzed by XRPD.

[2] = Stability of solid state forms under static storage, re-analysed by XRPD; assay type: physicochemical
Method: Crystalline Form 1 of Compound II (4 g) was placed in a crystallization dish and stored in a stability chamber at 25° C./97% RH. XRPD analysis was regularly performed to verify the conversion to Form 2. Complete conversion was observed after 4 weeks at 25° C./97% RH.
Samples were assessed for stability under ambient or static storage conditions of 25° C./97% RH and 40° C./75% RH for 7 or 10 days. The samples were then re-analyzed by XRPD.
Results of the subsequent XRPD analysis for the crystalline forms are described in the following table: […]

[3] = Stability of solid forms on drying, vacuum or standing (XRPD); assay type: physicochemical
Method: Crystalline Hydrate Form 2 of Compound II was portioned into two and half was placed in the vacuum oven at RT. After 24 h the sample was analyzed by XRPD. Some small differences between the XRPD pattern and the Form 2 reference were noted. After 4 days in the vacuum oven complete conversion was observed.

[4] = Variable temperature XRPD (heating); assay type: physicochemical; conditions: heating to 110° C.
Method: For variable temperature (VT-XRPD) experiments the samples were prepared and analyzed in an Anton Paar chromed sample holder. A heating/cooling rate of 10° C./min was used with a 2 min isothermal hold before the measurement started. The measurement parameters are as per the standard screening data collection method (detailed above). Measurements were taken at the following temperatures: […]

[5] = system: mice; conditions: cited from earlier work

SMILES | Reversible Water Uptake between 0-90% RH [1] | Solid State Form After GVS (XRPD) [1] | solid state form by XRPD after storage ([2]; 25° C./97% RH/7 days) | solid state form by XRPD after storage ([2]; 40° C./75% RH/7 days) | solid form stability on drying [3] | other results
Cc1cc(OC/C=C(/c2ccc(F)cc2)c2ccc(C#CCN3CCOCC3)cc2)ccc1OCC(=O)[O-].[Na+] [Form 1, sodium (E)-2-(4-((3-(4-fluorophenyl)-3-(4-(3-morpholinoprop-1-yn-1-yl)phenyl)allyl)oxy)-2-methylphenoxy)acetate] | ~13.0% † | Unchanged (Form 1) | Form 2 | Unchanged (Form 1) | – | time to complete conversion to Form 2 ([2]; stability chamber at 25° C./97% RH, 4 g): 4 weeks
Cc1cc(OC/C=C(/c2ccc(F)cc2)c2ccc(C#CCN3CCOCC3)cc2)ccc1OCC(=O)[O-].[Na+] [Form 2, sodium (E)-2-(4-((3-(4-fluorophenyl)-3-(4-(3-morpholinoprop-1-yn-1-yl)phenyl)allyl)oxy)-2-methylphenoxy)acetate] | ~25% | Unchanged (Form 2) | Unchanged (Form 2) | Unchanged (Form 2) | – | time to complete conversion to Pattern 9 ([3]; vacuum oven at RT): 4 days
Cc1cc(OC/C=C(/c2ccc(F)cc2)c2ccc(C#CCN3CCOCC3)cc2)ccc1OCC(=O)[O-].[Na+] [Form 3, sodium (E)-2-(4-((3-(4-fluorophenyl)-3-(4-(3-morpholinoprop-1-yn-1-yl)phenyl)allyl)oxy)-2-methylphenoxy)acetate] | ~9.0% | Form 1 | – | Form 1 | converts to Form 1 | solid form stability on standing ([3]; standing in ambient conditions): converts to Form 1
Cc1cc(OC/C=C(/c2ccc(F)cc2)c2ccc(C#CCN3CCOCC3)cc2)ccc1OCC(=O)[O-].[Na+] [Form 4, sodium (E)-2-(4-((3-(4-fluorophenyl)-3-(4-(3-morpholinoprop-1-yn-1-yl)phenyl)allyl)oxy)-2-methylphenoxy)acetate] | ~23% | Form 2 | Form 2 | Form 1 | – | XRPD after heating [4]: unchanged XRPD
Cc1cc(OC/C=C(/c2ccc(F)cc2)c2ccc(C#CCN3CCOCC3)cc2)ccc1OCC(=O)[O-].[Na+] [Form 5, sodium (E)-2-(4-((3-(4-fluorophenyl)-3-(4-(3-morpholinoprop-1-yn-1-yl)phenyl)allyl)oxy)-2-methylphenoxy)acetate] | ~11% | Form 1 | – | – | converts to Form 1 | –
Cc1cc(SCc2sc(-c3ccc(C(F)(F)F)cc3)nc2C)ccc1OCC(=O)O [GW1516] | – | – | – | – | – | energy substrate usage ([5]; 8 weeks treatment): a clear shift in energy substrate usage from glucose to fatty acid oxidation; physical performance ([5]; in combination with exercise, 4 weeks): enhanced physical performance
Cc1cc(OC/C=C(/c2ccc(F)cc2)c2ccc(C#CCN3CCOCC3)cc2)ccc1OCC(=O)[O-].[Na+] [Pattern 5, sodium (E)-2-(4-((3-(4-fluorophenyl)-3-(4-(3-morpholinoprop-1-yn-1-yl)phenyl)allyl)oxy)-2-methylphenoxy)acetate] | – | – | – | – | – | solid form stability [3]: unstable
Cc1cc(OC/C=C(/c2ccc(F)cc2)c2ccc(C#CCN3CCOCC3)cc2)ccc1OCC(=O)[O-].[Na+] [Pattern 8, sodium (E)-2-(4-((3-(4-fluorophenyl)-3-(4-(3-morpholinoprop-1-yn-1-yl)phenyl)allyl)oxy)-2-methylphenoxy)acetate] | – | – | – | – | converts to Form 1 | –
Cc1cc(OC/C=C(/c2ccc(F)cc2)c2ccc(C#CCN3CCOCC3)cc2)ccc1OCC(=O)[O-].[Na+] [Pattern 9, sodium (E)-2-(4-((3-(4-fluorophenyl)-3-(4-(3-morpholinoprop-1-yn-1-yl)phenyl)allyl)oxy)-2-methylphenoxy)acetate] | ~27% | Unchanged (Pattern 9) | – | – | – | –
Cc1cc(OC/C=C(/c2ccc(F)cc2)c2ccc(C#CCN3CCOCC3)cc2)ccc1OCC(=O)[O-].[Na+] [amorphous, sodium (E)-2-(4-((3-(4-fluorophenyl)-3-(4-(3-morpholinoprop-1-yn-1-yl)phenyl)allyl)oxy)-2-methylphenoxy)acetate] | – | – | – | – | – | change in XRPD after storage ([2]; ambient storage conditions for 24 hours, 48 hours, 7 days, or 10 days): no change; change in XRPD after storage ([2]; static storage of 40° C./75% RH for 10 days): no change
